Measurements reported in patent publication US7081457B2 (Wyeth, priority 1999, dated 2006).

Columns and labels:
alkaline phosphatase = assay: cells; details: read-out: EC50 (alkaline phosphatase data, printed in HPR CV-1 column)
ovulation = assay: Ovulation Inhibition; details: in vivo

Structure (SMILES)	melting point	EC50 (alkaline phosphatase)	Ovulation Inhibition ED100 (ovulation)
CC1(C)OC(=S)Nc2ccc(-c3cccc(C#N)c3)cc21 [Compound 4, 3-(4,4-Dimethyl-2-thioxo-1,4-dihydro-2H-benzo[d][1,3]oxazin-6-yl)-benzonitrile]	236 to 237 °C	0.4 nM	
CC1(C)OC(=S)Nc2ccc(-c3cc(F)cc(C(F)(F)F)c3)cc21 [Example 43, 6-[3-Fluoro-5-(trifluoromethyl)phenyl]-4,4-dimethyl-1,4-dihydro-2H-3,1-benzoxazine-2-thione]	204 to 206 °C		
CC1(C)OC(=S)Nc2ccc(-c3csc(C#N)c3)cc21 [Compound 2, 4-(4,4-Dimethyl-2-thioxo-1,4-dihydro-2H1-benzo [d][1,3]oxazin-6-yl)-thiophene-2-carbonitrile]			1 mg/kg

The next lines start with results.

melting point	Structure (SMILES)	EC50 (alkaline phosphatase)	Ovulation Inhibition ED100 (ovulation)
211 to 212 °C	Cc1cc(C#N)sc1-c1ccc2c(c1)C(C)(C)OC(=S)N2 [Example 16, 5-(4,4-Dimethyl-2-thioxo-1,4-dihydro-2H-3,1-benzoxazin-6-yl)-4-methylthiophene-2-carbonitrile]		
250 to 251 °C	CC1(C)OC(=S)Nc2ccc(-c3cc(C#N)ccc3F)cc21 [Example 47, 3-(4,4-Dimethyl-2-thioxo-1,4-dihydro-2H-3,1-benzoxazin-6-yl)-4-fluorobenzonitrile]		
204 to 205 °C	CC1(C)OC(=S)Nc2ccc(-c3cc(F)cc(Cl)c3)cc21 [Example 27, 6-(3-Chloro-5-fluorophenyl)-4,4-dimethyl-1,4-dihydro-2H-3,1-benzoxazine-2-thione]		
